According to PubChem BioAssay (NCI):
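Grown in 96-well plates, cells were treated for 48 hours with each compound at five concentrations. Insufficient inhibition: endpoint recorded as highest concentration tested. GI50 is the concentration that inhibits growth by half. Definition used: TGI = concentration required for complete inhibition of growth.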

Assays:
Test in all cases: growth of human tumour cells (NCI), 48 h
[1] = system: CCRF-CEM leukemia
[2] = system: OVCAR-5 ovarian
[3] = system: HOP-92 NSCLC
[4] = system: OVCAR-8 ovarian
[5] = system: HOP-62 NSCLC
[6] = system: K-562 leukemia
[7] = system: HCT-15 colon
[8] = system: HL-60(TB) leukemia
[9] = system: SW-620 colon
[10] = system: SF-295 CNS

| SMILES | GI50 [1] [µM] | TGI [1] [µM] | GI50 [2] [µM] | TGI [2] [µM] | GI50 [3] [µM] | TGI [3] [µM] | GI50 [4] [µM] | TGI [4] [µM] | GI50 [5] [µM] | TGI [5] [µM] | GI50 [6] [µM] | TGI [6] [µM] | GI50 [7] [µM] | TGI [7] [µM] | GI50 [8] [µM] | TGI [8] [µM] | GI50 [9] [µM] | TGI [9] [µM] | GI50 [10] [µM] | TGI [10] [µM] |
| --- | --- | --- | --- | --- | --- | --- | --- | --- | --- | --- | --- | --- | --- | --- | --- | --- | --- | --- | --- | --- |
| COc1ccc(C(O)c2cc3c(N)c(C(=O)Nc4cccc(Cl)c4)sc3nc2C)cc1 (stereo not given) | 1.13 | > 100 | 1.98 | > 48.7 | 3.66 | > 39.9 | 1.45 | > 47.8 | 0.617 | 19.9 | 1.03 | > 37.5 | 1.18 | > 49.2 | 0.868 | 2.78 | 1 | > 38.3 | 1.12 | > 22.7 |
| O=C1CC(c2[nH]nc3ccccc23)C(=O)N1c1ccccc1 (stereo not given) |  | > 71.8 |  | > 100 |  | > 100 |  | > 100 |  | > 100 |  | > 80.1 |  | > 100 |  | 70.4 |  | > 100 |  | > 100 |
| C=C1C(=O)OC2CC(C)C3CC(O)OC(OCC)C3(C)CC12 (stereo not given) |  | > 100 |  | 54.4 |  | 35.1 |  | 31.4 |  | 47.6 |  | > 57.4 |  | 21.3 |  | > 30 |  | 19 |  | 90.6 |
| CCN(c1cc(-c2ccc(CN3CCOCC3)cc2)cc(C(=O)NCc2c(C)cc(C)[nH]c2=O)c1C)C1CCOCC1 | 30.6 | > 85.4 | 37.7 | > 82.5 | 16.8 | > 57 | 37.9 | > 100 | 30.7 | 99.2 | 32.6 | > 100 | 19.2 | 48.4 | 17.5 | 56.2 | 20.7 | 52.4 | 26.2 | 71.3 |
| COc1cc2c(cc1O)CC1c3c(cc(O)c(OC)c3-2)CCN1C (stereo not given) |  | > 100 |  | > 100 |  | > 100 |  | > 100 |  | > 100 |  | > 100 |  | > 100 |  | > 100 |  | > 100 |  | > 100 |
| O=c1/c(=C\c2ccc(F)cc2)sc2n1C(c1ccc(F)cc1)C1=C(N=2)c2ccc3ccccc3c2OCC1 (stereo not given) | > 100 | > 100 | > 100 | > 100 |  | > 100 | > 100 | > 100 | > 100 | > 100 | > 29.5 | > 100 | 7.17 | > 100 | > 100 | > 100 | > 100 | > 100 | > 100 | > 100 |
| Cc1c2c(c(C)c3c4c(oc13)CCCC4)C=NCC2 |  | 29.4 |  | 32.1 |  | 25.4 |  | 23.1 |  | 60.6 |  | 37.4 |  | 34.4 |  | 43.4 |  | 59.3 |  | 31.7 |
| S=c1nc(N/N=C/c2ccco2)c2cn[nH]c2[nH]1 | 2.2 | > 100 | > 100 | > 100 | 71.4 | > 100 | 69.2 | > 100 | > 100 | > 100 | 39.9 | > 100 | 50 | > 100 | 77.1 | > 100 | 51 | > 100 | > 100 | > 100 |
| O=C1CCC(N2C(=O)c3ccccc3C2=O)C(=O)N1 (stereo not given) |  | > 100 |  | > 100 |  | > 100 |  | > 100 |  | > 100 |  | > 100 |  | > 100 | > 100 | > 100 |  | > 100 |  | > 100 |
| Cc1c(NC(=S)NC(=O)c2ccc([N+](=O)[O-])cc2)c(=O)n(-c2ccccc2)n1C |  | > 100 |  | > 100 |  | > 100 |  | > 100 |  | > 100 |  | > 100 |  | > 100 |  | > 100 |  | > 100 |  | > 100 |
| c1cncc(CNCc2cccnc2)c1 |  | > 100 |  | > 100 |  | > 100 |  | > 100 |  | > 100 |  | > 100 |  | > 100 |  | > 100 |  | > 100 |  | > 100 |
| CC1=Cc2ccc(C)cc2C(=O)C1=O |  | 1.98 |  | 37.2 |  | 17.6 |  | > 73.8 |  | 57 |  | > 23.9 |  | 47.1 |  | 4.13 |  | > 100 |  | 34.7 |
| CCCCCC[C@H](C)Nc1nc2ccccc2c2occc12 | 4.33 | 21.1 | 5.54 | 20.3 | 5.18 | 20.2 | 10.8 | 26.3 | 11.5 | 23.9 | 16.3 | > 100 | 10.1 | 22 | 11.9 | 37.8 | 5.46 | 22.2 | 6.01 | 25.5 |
| CN(C)CCSS(=O)(=O)O |  | > 100 |  | > 100 |  | > 100 |  | > 100 |  | > 100 |  | > 100 |  | > 100 |  | > 100 |  | > 100 |  | 94.4 |
| C=CCC1=C(C)C[C@@H]2CCC(=O)C=C12 |  | > 100 |  | > 100 |  | > 100 |  | > 100 |  | > 100 |  | > 100 |  | > 100 |  | > 100 |  | > 100 |  | > 100 |
| O=C(Nn1c(-c2ccccc2)nc2ccccc2c1=O)c1ccccc1O |  | > 100 |  | > 100 |  | > 100 |  | > 100 |  | > 100 |  | > 100 |  | > 100 |  | > 100 |  | > 100 |  | > 100 |
| COC(=O)C1C(O)C(C)C(O)C(C)C=C(C)C2=C3C(=C(C)C(=O)c4c(O)c(c(C)c(OC(C)=O)c43)NC(=O)C(C)=C/C=C\C(C)C(O)C(C)C1O)OCO2 (stereo not given) |  | 67 |  | > 100 |  | > 100 |  | > 100 |  | > 100 |  | 47.5 |  | 65.9 |  | 41.6 |  | 56.4 |  | > 100 |
